Reference: publication PMC7070731, “Cytotoxic Activity of Organotin(IV) Derivatives with Triazolopyrimidine Containing Exocyclic Oxygen Atoms” (Molecules, 2020)

Key:
[1] = tested on: HepG2 (human hepatocellular cancer) cells; experiment: MTT cytotoxicity assay, HepG2; assay type: cell-based; conditions: for Influence on cell growth / viability, HepG2: 24 h, 0.01–1 µM range; for IC50: 24 h treatment, read-out: IC50 (nM ± SD) HepG2
Procedure: (§1) HTC116 (human colorectal carcinoma), HepG2 (human hepatocellular carcinoma), MCF-7 (human breast cancer), 16-HBE (human bronchial epithelium) and Caco-2 (human colorectal carcinoma) cell lines were purchased from American Type Culture Collection, Rockville, MD, USA. All cell lines were grown in RPMI medium supplemented with L-glutamine (2 mM), 10% fetal bovine serum (FBS), penicillin (100 U/mL), streptomycin (100 µg/mL) and gentamicin (5 μg/mL). Cells were maintained in log phase by seeding twice a week at a density of 3 × 10^8 cells/L in humidified 5% CO2 atmosphere, at 37 °C. In all experiments, after plating, cells were allowed to adhere overnight and then treated with the compounds or vehicle alone (control cells), whereas Caco-2 cells were treated 15 days after confluence, at which time the cells are differentiated in normal intestinal-like cells. No differences were found between cells treated with DMSO 0.1% and untreated cells in terms of cell number and viability.
(§2) Cytotoxic activity of the organotin compounds against human tumor cell lines (HCT-116, HepG2 and MCF-7) and human normal cells (16-HBE and intestinal-like differentiated Caco2 cells) was determined using the MTT colorimetric assay based on the reduction of 3-(4,5-dimethyl-2-thiazolyl)bromide-2,5-diphenyl-2H-tetrazolium (MTT) to purple formazan using mitochondrial dehydrogenases of living cells, as reported. This method is commonly used to illustrate inhibition of cellular proliferation. Monolayer cultures were treated for 24 h with various concentrations (0.01-1 µM) of the drugs. Cisplatin was used for comparison. Briefly, all cell lines were seeded at 1.0 × 10^4 cells/well in 96-well plates containing 200 μL RPMI. When appropriated, cells were washed with fresh medium and incubated with the compounds in RPMI. After incubation, cells were washed, and 50 μL FBS-free medium containing 5 mg/mL MTT was added. The medium was discarded after a 2 h incubation at 37 °C by centrifugation, and formazan blue formed in the cells was dissolved in DMSO. The absorbance, measured at 570 nm in a microplate reader (Bio-RAD, Hercules, CA, USA) of MTT formazan of control cells was taken as 100% of viability. The growth inhibition activity of compounds was estimated by comparison with the not-treated control. The values for the inhibitory concentration for 50% of the tested compounds (IC50) were calculated using a sigmoidal model using GraphPad Prism 5.02 from GraphPad Software (San Diego, CA, USA). Each experiment was repeated three times in triplicate to obtain the mean values.

[2] = tested on: MCF-7 (human breast cancer) cells; experiment: MTT cytotoxicity assay, MCF-7; assay type: cell-based; conditions: for Influence on cell growth / viability, MCF-7: 24 h, 0.01–1 µM range; for IC50: 24 h treatment, read-out: IC50 (nM ± SD) MCF-7
Procedure: as §1, §2

[3] = tested on: HCT-116 (human colorectal carcinoma) cells; experiment: MTT cytotoxicity assay, HCT-116; assay type: cell-based; conditions: for Influence on cell growth / viability, HCT-116: 24 h, 0.01–1 µM range; for IC50: 24 h treatment, read-out: IC50 (nM ± SD) HCT-116
Procedure: as §1, §2

HCT-116 cells [4] = experiment: Mitochondrial transmembrane potential, DiOC6 flow cytometry; assay type: cell-based, human; conditions: 24 h, control 3.2%
Procedure: Mitochondrial transmembrane potentials (Δψm) were assessed using flow cytofluorometry, with the cationic lipophilic dye 3,3′-dihexyloxacarbocyanine iodide(3) (DiOC6) (Molecular Probes, Inc., Life Technologies Italia, Monza, Italy), which accumulates in the mitochondrial matrix. Changes in mitochondrial membrane potential are indicated by a reduction in the DiOC6-induced fluorescence intensity. After 24 h treatment, cells were incubated with DiOC6 at a 40 nmol/L final concentration, for 15 min at 37 °C. After centrifugation, cells were washed with phosphate buffer saline (PBS) and suspended in 500 μL PBS. Then, samples of 1.0 × 10^4 cells were subjected to FACS analysis.

HCT-116 cells [5] = experiment: Intracellular ROS, DCFH-DA flow cytometry; assay type: cell-based, human; conditions: 24 h, control 1.9%
Procedure: ROS level was monitored by measuring fluorescence changes that resulted from intracellular oxidation of 2′,7′-dichlorofluorescin diacetate (DCFH-DA). DCFH-DA, at 10 μM final concentration, was added to the cell medium 30 min before the end of the treatment. The cells were collected using centrifugation for 5 min at 2000 rpm at 4 °C, washed, suspended in PBS and immediately subjected to FACS analysis. At least 1 × 10^4 cells were analyzed for each sample.

[6] = tested on: human bronchial epithelial cells (16-HBE); experiment: MTT viability assay, 16-HBE cells; assay type: cell-based; conditions: 24 h; for CC50: concentration lethal to 50% of the normal cells, read-out: 16-HBE Cells LC50; for Effect on cell survival, 16-HBE cells: reduction seen in the 1–10 μM range
Procedure: as §1
as §2, with “Monolayer cultures were treated for 24 h with various concentrations (0.01-1 µM) of the drugs.” left out
(§3) Formazan of control cells was taken as 100% viability and the 50% lethal concentrations of the synthesized complexes (LC50) were determined by plotting the graph of cell viability versus the concentrations. The selectivity index (SI) values were calculated for each compound by dividing the LC50 of normal differentiated Caco2 or 16-HBE cells by the IC50 of HCT-116 tumor cells. Each experiment was repeated three times in triplicate.

[7] = tested on: intestinal normal-like differentiated Caco-2 cells; experiment: MTT viability assay, normal-like differentiated Caco-2 cells; assay type: cell-based, human; conditions: 24 h; for Effect on cell survival, normal-like differentiated Caco-2 cells: MTT, reduction seen in the 1–10 μM range; for CC50: differentiated Caco-2, MTT, concentration lethal to 50% of the normal cells, read-out: Normal-Like Intestinal Cells LC50
Procedure: as §1
as §2, with “Monolayer cultures were treated for 24 h with various concentrations (0.01-1 µM) of the drugs.” left out
as §3

p53 = experiment: Western blot, p53 level in HCT 116 cells; assay type: cell-based, human; conditions: 24 h, immunoblotting
Procedure: (§4) After treatment with the compound, protein extracts were prepared and equal amounts of protein samples (80 μg/lane), subjected to SDS-PAGE, were transferred to nitrocellulose membrane as previously reported. The immunoblot was incubated overnight at 4 °C with blocking solution (5% skim milk), followed by incubation with anti-p21 (F-5, Cat No SC-6246 Santa Cruz Biotechnology) or anti-p53 (DO-1, Cat No SC-126, Santa Cruz Biotechnology) for 1 h at room temperature. Blots were washed two times with Tween 20/Tris-buffered saline (TTBS) and incubated with a 1:2000 dilution of horseradish peroxidase (HRP)-conjugated anti-IgG antibody (Dako Denmark, Glostrup, Denmark) for 1 h at room temperature. Blots were again washed five times with TTBS and then developed using enhanced chemiluminescence (Amersham Life Science, Arlington Heights, IL, USA.). Immunoreactions were also performed using β-actin antibody as loading controls.

p21^WAF1 = experiment: Western blot, p21WAF1 level in HCT 116 cells; assay type: cell-based, human; conditions: 24 h, immunoblotting
Procedure: as §4

HCT-116 cells [8] = experiment: Cell cycle analysis, propidium iodide flow cytometry; assay type: cell-based, human; conditions: HCT-116, 24 h of treatment
Procedure: Cell cycle stage was analyzed using flow cytometry. Aliquots of 1.0 × 10^6 cells were harvested using centrifugation, washed with PBS and incubated in the dark in a PBS solution containing Triton X100 (0.1%, v/v), 20 μg/mL propidium iodide (PI) and 200 µg/mL RNase, for 30 min, at room temperature. Then, samples were immediately subjected to FACS analysis. At least 1 × 10^4 events were analyzed for each sample.

Compound | Influence on cell growth / viability, HepG2 [1] | IC50 [1] | Influence on cell growth / viability, MCF-7 [2] | IC50 [2] | Influence on cell growth / viability, HCT-116 [3] | IC50 [3] | Cells with dissipated mitochondrial membrane potential (HCT-116 cells [4]; 20 μM) | AY, ROS production (DCFH-DA fluorescent cells) (HCT-116 cells [5]; 20 μM) | CC50 [6] | Effect on cell survival, 16-HBE cells [6] | Effect on cell survival, normal-like differentiated Caco-2 cells [7] | CC50 [7] | Cells with dissipated mitochondrial membrane potential (HCT-116 cells [4]; 0.1 μM) | Effect on level of p53 (p53) | AY, ROS production (DCFH-DA fluorescent cells) (HCT-116 cells [5]; 0.1 μM) | Effect on level of p21 (p21^WAF1) | Effect on cell cycle distribution (HCT-116 cells [8])
Cc1cc([O][Sn]([CH3])([CH3])[CH3])n2ncnc2n1 [Compound 3, Me3Sn(mtpO)] | no influence on cell growth | > 1000 nM | no influence on cell growth | > 1000 nM | no influence on cell growth | > 1000 nM | – | – | – | – | – | – | – | – | – | – | –
N.N.[Cl][Pt][Cl] [Cisplatin, reference compound] | – | 65000 nM | – | 10000 nM | – | 46000 nM | 17.4% | 23.5% | – | – | – | – | – | – | – | – | –
CCC[CH2][Sn]([CH2]CCC)([CH2]CCC)[O]c1ccn2ncnc2n1 [Compound 2, n-Bu3Sn(5tpO)] | – | 70 ± 6 nM | – | 233 ± 21 nM | – | 70 ± 8 nM | – | – | 17000 ± 1000 nM | reduction of the cell survival | reduction of the cell survival | 6000 ± 400 nM | 23.5% | did not vary | 22.5% | did not vary | block of cell duplication in the G0/G1 phase
n-Bu3Sn(HtpO2) [Compound 5] | – | 117 ± 10 nM | – | 487 ± 47 nM | – | 101 ± 11 nM | – | – | 22000 ± 1000 nM | reduction of the cell survival | reduction of the cell survival | 12000 ± 1000 nM | 18.3% | did not vary | 20.2% | did not vary | block of cell duplication in the G0/G1 phase
Ph3Sn(HtpO2) [Compound 6] | – | 63 ± 5 nM | – | 102 ± 9 nM | – | 60 ± 5 nM | – | – | – | did not affect the cell viability at any assayed concentration | did not affect the cell viability at any assayed concentration | – | 25.1% | – | 25.3% | – | cell cycle arrest in phase G2/M
CCC[CH2][Sn]([CH2]CCC)([CH2]CCC)[O]c1cc(C)nc2ncnn12 [Compound 4, n-Bu3Sn(mtpO)] | – | 53 ± 6 nM | – | 118 ± 10 nM | – | 34 ± 3 nM | – | – | 11000 ± 1000 nM | reduction of the cell survival | reduction of the cell survival | 5000 ± 400 nM | 28.5% | did not vary | 27.3% | did not vary | block of cell duplication in the G0/G1 phase
[CH3][Sn]([CH3])([CH3])[O]c1ccn2ncnc2n1 [Compound 1, Me3Sn(5tpO)] | no influence on cell growth | > 1000 nM | no influence on cell growth | > 1000 nM | no influence on cell growth | > 1000 nM | – | – | – | – | – | – | – | – | – | – | –
